pIC50: −log10 of the molar value.
Tests used:
Human PKMYT1 = molecular target: T1, Human PKMYT1 (Homo sapiens, UniProt Q99640); experiment: PKMYT1 biochemical ADP-Glo enzymatic assay; settings: ADP-Glo
T1 construct: Human PKMYT1 75-362 was cloned as a TEV cleavable 6xHis fusion; 6xHis (TEV cleavable) (cleaved yes); made in house; host or cells: bacterial cells
T1 sequence (Q99640 75-362): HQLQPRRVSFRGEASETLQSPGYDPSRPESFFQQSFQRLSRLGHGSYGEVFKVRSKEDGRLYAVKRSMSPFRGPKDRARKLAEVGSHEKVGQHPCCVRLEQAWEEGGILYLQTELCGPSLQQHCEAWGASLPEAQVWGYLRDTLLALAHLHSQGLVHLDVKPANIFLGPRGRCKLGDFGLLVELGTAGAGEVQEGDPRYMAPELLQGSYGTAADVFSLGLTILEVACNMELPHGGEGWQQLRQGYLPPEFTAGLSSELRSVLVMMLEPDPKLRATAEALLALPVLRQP
Method in brief: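 Intrinsic ATPase activity of E. coli-expressed, tag-cleaved human PKMYT1 kinase domain (75-362), 15 nM, with 500 µM ATP in HEPES pH 7.5/MgCl2/EGTA/Brij-35, 1% DMSO, 60 min at 26 °C. ADP formed was read by ADP-Glo Max luminescence; IC50 from 10-point, 3-fold dilution curves.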

[1] = molecular target: T2, Cellular PKMYT1 Biomarker CDK1 pT14 (Homo sapiens, UniProt Q99640); experiment: Inhibition of cellular PKMYT1 biomarker CDK1 pT14 in OVCAR 3 cells (immunoblot); assay type: cell-based; settings: 20 hours incubation
T2 construct: read-out CDK1 phospho-T14 immunoblot
T2 sequence (Q99640 1-499): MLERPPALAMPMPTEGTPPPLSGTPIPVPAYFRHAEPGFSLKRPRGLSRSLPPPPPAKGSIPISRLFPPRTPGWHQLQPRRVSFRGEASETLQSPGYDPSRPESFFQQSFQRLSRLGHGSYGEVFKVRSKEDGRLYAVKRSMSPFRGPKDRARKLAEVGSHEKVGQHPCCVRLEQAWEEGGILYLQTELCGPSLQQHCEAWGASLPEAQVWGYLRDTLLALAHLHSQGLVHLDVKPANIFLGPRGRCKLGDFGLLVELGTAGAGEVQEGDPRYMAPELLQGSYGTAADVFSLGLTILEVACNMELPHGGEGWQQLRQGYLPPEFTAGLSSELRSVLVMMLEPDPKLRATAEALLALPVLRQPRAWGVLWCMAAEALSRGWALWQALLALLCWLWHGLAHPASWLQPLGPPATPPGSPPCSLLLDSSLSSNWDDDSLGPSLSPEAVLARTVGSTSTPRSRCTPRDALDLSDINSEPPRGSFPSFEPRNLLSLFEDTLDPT
Method in brief: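 Confluent OVCAR 3 cells treated with a compound concentration range for 20 h at 37 °C. Lysates analysed by automated capillary immunoblot for CDK1 phospho-T14, with vinculin, fluorescence detection; IC50 by regression.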

WEE1 = molecular target: T3, WEE1 (Homo sapiens, UniProt P30291); experiment: Selectivity versus WEE1 assay (ADP-Glo enzymatic assay); assay type: biochemical; settings: for pIC50: ADP-Glo; for PKMYT1 vs. WEE1 selectivity: fold difference in selectivity for PKMYT1 over WEE1
T3 construct: purchased Thermo Fisher PR7373A
T3 sequence (P30291 whole entry): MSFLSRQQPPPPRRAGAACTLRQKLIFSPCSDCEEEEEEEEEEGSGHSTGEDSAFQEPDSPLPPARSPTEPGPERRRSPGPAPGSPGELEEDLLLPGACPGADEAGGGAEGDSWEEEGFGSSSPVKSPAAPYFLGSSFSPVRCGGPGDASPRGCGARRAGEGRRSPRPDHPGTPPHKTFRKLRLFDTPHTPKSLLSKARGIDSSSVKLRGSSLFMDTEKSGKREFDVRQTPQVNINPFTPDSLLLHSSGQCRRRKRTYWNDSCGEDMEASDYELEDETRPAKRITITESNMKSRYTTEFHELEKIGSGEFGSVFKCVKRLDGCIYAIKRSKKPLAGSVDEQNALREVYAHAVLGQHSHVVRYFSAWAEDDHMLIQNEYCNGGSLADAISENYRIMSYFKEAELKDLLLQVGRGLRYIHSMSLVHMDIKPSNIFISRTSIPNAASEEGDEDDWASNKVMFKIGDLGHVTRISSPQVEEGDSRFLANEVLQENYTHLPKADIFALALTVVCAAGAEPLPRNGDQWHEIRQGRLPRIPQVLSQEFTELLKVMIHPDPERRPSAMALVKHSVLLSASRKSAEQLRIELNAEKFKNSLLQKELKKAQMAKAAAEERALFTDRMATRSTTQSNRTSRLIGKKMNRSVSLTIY
Method in brief: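 Kinase at 15 nM final in 50 mM HEPES pH 7.5, 10 mM MgCl2, 1 mM EGTA, 0.01% Brij-35, 1% DMSO was started with 30 µM ATP and run 60 min at 26° C. ADP formed was read by ADP-Glo luminescence; IC50 came from dose-response curves.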

KYSE-30 cells = experiment: Cancer cell line proliferation assay, ATP-based cell viability (Cell Titre Glow), KYSE-30 (normal CCNE1); settings: Homo sapiens, KYSE-30 cells (normal CCNE1), concentration that achieves 50% cell growth proliferation inhibition, read-out: KYSE30 Gl50
Method in brief: (§1)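 GI50 reflects half-maximal growth inhibition by PKMYT1 inhibitors, derived by curve fitting of CellTiter-Glo luminescence signals.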

OVCAR 3 cells = experiment: Cancer cell line proliferation assay, ATP-based cell viability (Cell Titre Glow), OVCAR 3 (CCNE1-amplified); settings: KYSE30 (normal CCNE1) GI50 vs. OVCAR 3 (CCNE1-amplified) GI50
Method in brief: as §1

[2] = PKMYT1 kinase domain 15 nM, banded values
[3] = 15 nM PKMYT1 kinase domain, 500 µM ATP, 60 minutes at 26° C., banded
[4] = 15 nM WEE1, 60 minutes at 26° C., banded
[5] = banded, ">N" = at least in this band but could be higher

Structure (SMILES) | pIC50 (Human PKMYT1; [2]) | pIC50 [1] | pIC50 (WEE1; WEE1 15 nM, banded values) | PKMYT1 vs. WEE1 selectivity (WEE1; banded) | GI50 (KYSE-30 cells) | Selectivity ratio KYSE30 Gl50 vs. OVCAR3 Gl50 (OVCAR 3 cells) | pIC50 (Human PKMYT1; [3]) | pIC50 (WEE1; [4]) | PKMYT1 vs. WEE1 selectivity (WEE1; [5])
Cc1cn(CC(=O)N2CCCC2(C)C)nc1Nc1ncc(C(=O)Nc2c(C)ccc(O)c2C)s1 [BAA-605, 2-((1-(2-(2,2-dimethylpyrrolidin-1-yl)-2-oxoethyl)-4-methyl-1H-pyrazol-3-yl)amino)-N-(3-hydroxy-2,6-dimethylphenyl)thiazole-5-carboxamide] | > 7.30 | > 7.00 | 4.96 to 6.00 | X (100-<1000 fold) | > 5000 nM | Y (>20 fold) |  |  | 
Cc1ccc(O)c(C)c1NC(=O)c1cnc(Nc2cccc(N(C)C(=O)c3c(F)cc(F)cc3F)n2)s1 [BAA-325, N-(3-hydroxy-2,6-dimethylphenyl)-2-((6-(2,4,6-trifluoro-N-methylbenzamido)pyridin-2-yl)amino)thiazole-5-carboxamide] |  | > 7.00 |  |  | > 5000 nM | X (3-20 fold) | 6.00 to 7.30 | < 4.96 | Y (1000-5000 fold)
Cc1ccc(O)c(C)c1NC(=O)c1cnc(Nc2nn(CC(=O)N3CCCC3)cc2Cl)s1 [BAA-546, 2-((4-chloro-1-(2-oxo-2-(pyrrolidin-1-yl)ethyl)-1H-pyrazol-3-yl)amino)-N-(3-hydroxy-2,6-dimethylphenyl)thiazole-5-carboxamide] | > 7.30 | > 7.00 | 4.96 to 6.00 | X (100-<1000 fold) | > 5000 nM | Y (>20 fold) |  |  | 
Cc1cc(Nc2ncc(C(=O)Nc3c(C)ccc(O)c3C)s2)nc(NCCC(C)(C)C)n1 [BAA-338, 2-((2-((3,3-Dimethylbutyl)amino)-6-methylpyrimidin-4-yl)amino)-N-(3-hydroxy-2,6-dimethylphenyl)thiazole-5-carboxamide] |  | > 7.00 |  |  | < 500 nM | Y (>20 fold) | > 7.30 | 4.96 to 6.00 | X (100-<1000 fold)
Cc1ccc(NC(=O)C2CCOCC2)nc1Nc1ncc(C(=O)Nc2c(C)ccc(O)c2C)s1.Cl [BAA-331, N-(3-hydroxy-2,6-dimethylphenyl)-2-((3-methyl-6-(tetrahydro-2H-pyran-4-carboxamido)pyridin-2-yl)amino)thiazole-5-carboxamide hydrochloride] |  | > 7.00 |  |  | 500 to 5000 nM | Y (>20 fold) | > 7.30 | < 4.96 | Y (1000-5000 fold)
Cc1ccc(O)c(C)c1NC(=O)c1cnc(Nc2nn(CC(F)F)cc2Br)s1 [BAA-587, 2-((4-bromo-1-(2,2-difluoroethyl)-1H-pyrazol-3-yl)amino)-N-(3-hydroxy-2,6-dimethylphenyl)thiazole-5-carboxamide] | > 7.30 | > 7.00 | 4.96 to 6.00 | X (100-<1000 fold) | 500 to 5000 nM | Y (>20 fold) |  |  | 
Cc1ccc(N[S+]([O-])C(C)(C)C)nc1Nc1ncc(C(=O)Nc2c(C)ccc(O)c2C)s1 (stereo not drawn) [BAA-340, 2-((6-((tert-Butylsulfinyl)amino)-3-methylpyridin-2-yl)amino)-N-(3-hydroxy-2,6-dimethylphenyl)thiazole-5-carboxamide] |  | 6.00 to 7.00 |  |  | 500 to 5000 nM | Y (>20 fold) | > 7.30 | 6.00 to 7.30 | V (3-<10 fold)
Cc1cc(F)cnc1Nc1ncc(C(=O)Nc2c(C)ccc(O)c2C)s1 [BAA-419, 2-((5-fluoro-3-methylpyridin-2-yl)amino)-N-(3-hydroxy-2,6-dimethylphenyl)thiazole-5-carboxamide] | > 7.30 | 6.00 to 7.00 | < 4.96 | Y (1000-5000 fold) | > 5000 nM | Y (>20 fold) |  |  | 
Cc1ccc(O)c(C)c1NC(=O)c1cnc(Nc2ccccn2)s1 [BAA-421, N-(3-hydroxy-2,6-dimethylphenyl)-2-(pyridin-2-ylamino)thiazole-5-carboxamide] | > 7.30 | > 7.00 | < 4.96 | X (100-<1000 fold) | 500 to 5000 nM | Y (>20 fold) |  |  | 
COc1ccnc(Nc2ncc(C(=O)Nc3c(C)ccc(O)c3C)s2)c1 [BAA-418, N-(3-hydroxy-2,6-dimethylphenyl)-2-((4-methoxypyridin-2-yl)amino)thiazole-5-carboxamide] | > 7.30 | > 7.00 | 4.96 to 6.00 | X (100-<1000 fold) | 500 to 5000 nM | Y (>20 fold) |  |  | 
Cc1ccc(O)c(C)c1NC(=O)c1cnc(Nc2nn(C)c3ccc(F)cc23)s1 [BAA-453, 2-((5-fluoro-1-methyl-1H-indazol-3-yl)amino)-N-(3-hydroxy-2,6-dimethylphenyl)thiazole-5-carboxamide] | 6.00 to 7.30 | > 7.00 | < 4.96 | X (100-<1000 fold) | > 5000 nM | Y (>20 fold) |  |  | 
Cc1ccc(O)c(C)c1NC(=O)c1cnc(Nc2cccc(C3CC3)n2)s1 [BAA-409, 2-((6-cyclopropylpyridin-2-yl)amino)-N-(3-hydroxy-2,6-dimethylphenyl)thiazole-5-carboxamide] | > 7.30 | > 7.00 | 4.96 to 6.00 | X (100-<1000 fold) | 500 to 5000 nM | Y (>20 fold) |  |  | 
Cc1cn(CC(=O)N2CC3(CCC3)C2)nc1Nc1ncc(C(=O)Nc2c(C)ccc(O)c2C)s1 [BAA-381, N-(3-hydroxy-2,6-dimethylphenyl)-2-((4-methyl-1-(2-oxo-2-(2-azaspiro[3.3]heptan-2-yl)ethyl)-1H-pyrazol-3-yl)amino)thiazole-5-carboxamide] |  | > 7.00 |  |  | > 5000 nM | Y (>20 fold) | > 7.30 | 4.96 to 6.00 | X (100-<1000 fold)
